Data on one compound can be found in ChEMBL document CHEMBL5131561, “Modified Benzofuran-carboxamide Compounds as Glucosylceramide Synthase Inhibitors for Treating Diseases” (ACS Med Chem Lett, 2022).

In the assay the target is T1, Ceramide glucosyltransferase (Homo sapiens, UniProt Q16739).
T1 sequence (Q16739 whole entry): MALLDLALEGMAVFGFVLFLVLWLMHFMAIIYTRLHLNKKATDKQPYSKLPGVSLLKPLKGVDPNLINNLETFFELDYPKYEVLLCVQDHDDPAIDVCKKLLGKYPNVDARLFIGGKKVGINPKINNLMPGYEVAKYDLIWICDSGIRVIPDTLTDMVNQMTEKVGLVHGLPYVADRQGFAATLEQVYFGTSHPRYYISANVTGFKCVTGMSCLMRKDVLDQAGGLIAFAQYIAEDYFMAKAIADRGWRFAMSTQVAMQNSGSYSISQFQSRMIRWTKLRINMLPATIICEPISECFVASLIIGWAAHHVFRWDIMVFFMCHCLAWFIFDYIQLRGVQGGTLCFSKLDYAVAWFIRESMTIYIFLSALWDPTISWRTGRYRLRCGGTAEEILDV
Description: Inhibition of GCS in human A-375 cells using C6-ceramide and UDP-glucose as substrate preincubated for 30 mins followed by substrate addition measured after 20 hrs by UDP-Glo glucosylceramide synthase based luminometer analysis. The format is cell-based.

For orientation: EC50 means the concentration needed to bring the measured effect to its halfway point. Low readings indicate greater potency, high ones weaker potency. Compound `N#Cc1ccc(Cl)c(-c2cccc3cc(C(=O)N[C@H]4CC[C@@H](O)C4)oc23)c1` displayed an EC50 of 0.047 nM.
